Results published in patent publication EP1477169A1, “Reactions of polymorphs of N-methyl-N-(3-(3-(2-thienylcarbonyl)-pyrazol-(1,5-alpha)-pyrimidin-7-yl)phenyl)acetamide” (Neurocrine Biosciences, Inc., priority 1999, dated 2001).
Converted amounts (≈) assume the structure as drawn.

Key:
[1] = Approximate solubility in various solvents; format: physicochemical; conditions: for Solubility: approximate
From the text: In addition, the lower melting point polymorph, Form II, also has significant advantages over the polymorphic mixture of Compound 1 as prepared according to known techniques. […] Form II is generally more soluble in polar and protic solvents than is Form I. Enhanced solubility of a compound will generally increase the bioavailability of that compound. When absorption of a drug is dissolution rate limited, use of the more soluble and faster dissolving form improves the rate and extent of bioavailability.

[2] = Physical (polymorphic) stability of the solid form; format: physicochemical; conditions: in words, compared with the polymorphic mixture of Compound 1; stability toward conversion to a different polymorphic form
From the text: The polymorph Form I is considered a heat stable form of Compound 1. By "heat stable" or ''physically stable" is meant that the Form I is stable toward conversion to the polymorph Form II; although, it may be labile toward degradation to other compounds.
As the higher melting point polymorph, Form I has significant advantages over the polymorphic mixture of Compound 1 prepared according to known techniques. […] This, in turn, enhances the milling and compaction properties of the drug substance.

Structure (SMILES) | Solubility ([1]; Acetone) | Solubility ([1]; Acetonitrile) | Solubility ([1]; De-ionized water) | Solubility ([1]; Diethyl ether) | Solubility ([1]; Ethanol, absolute (100%)) | Solubility ([1]; Ethyl acetate) | Solubility ([1]; Hexane) | Solubility ([1]; Isopropanol) | Solubility ([1]; Methanol) | Solubility ([1]; Polyethylene Glycol 400, NF) | Solubility ([1]; Tetrahydrofuran) | Solubility ([1]; Toluene) | physical stability [2] | solubility in a range of organic solvents ([1]; in words, compared with Form I) | water solubility ([1]; in words, compared with Form I)
CC(=O)N(C)c1cccc(-c2ccnc3c(C(=O)c4cccs4)cnn23)c1 [Form I, N-methyl-N-(3-{3-[2-thienylcarbonyl]-pyrazol-[1,5-α]-pyrimidin-7-yl}phenyl)acetamide] | 4842 µg/mL (≈ 12.9 mM) | 6246 µg/mL (≈ 16.6 mM) | 8.3 µg/mL (≈ 0.022 mM) | 80 µg/mL (≈ 0.213 mM) | 1426 µg/mL (≈ 3.79 mM) | 1600 µg/mL (≈ 4.25 mM) | 41 µg/mL (≈ 0.109 mM) | 441 µg/mL (≈ 1.17 mM) | 1740 µg/mL (≈ 4.62 mM) | 3259 µg/mL (≈ 8.66 mM) | 9964 µg/mL (≈ 26.5 mM) | 997 µg/mL (≈ 2.65 mM) | superior physical stability | – | –
CC(=O)N(C)c1cccc(-c2ccnc3c(C(=O)c4cccs4)cnn23)c1 [Form II, N-methyl-N-(3-{3-[2-thienylcarbonyl]-pyrazol-[1,5-α]-pyrimidin-7-yl}phenyl)acetamide] | 6873 µg/mL (≈ 18.3 mM) | 8928 µg/mL (≈ 23.7 mM) | 18.8 µg/mL (≈ 0.0499 mM) | 51 µg/mL (≈ 0.135 mM) | 1722 µg/mL (≈ 4.57 mM) | 2160 µg/mL (≈ 5.74 mM) | 50 µg/mL (≈ 0.133 mM) | 457 µg/mL (≈ 1.21 mM) | 1915 µg/mL (≈ 5.09 mM) | 10100 µg/mL (≈ 26.8 mM) | 14740 µg/mL (≈ 39.2 mM) | 645 µg/mL (≈ 1.71 mM) | – | generally greater solubility in a range of organic solvents as compared to Form I | superior water solubility over Form I
